{
  "source": "patent US9499493B2",
  "about": "“2,4-pyrimidinediamine compounds and their uses” (Rigel Pharmaceuticals, Inc., priority 2002, dated 2016)",
  "data": [
    {"system": "cultured human mast cells (CHMC)", "experiment": "CHMC low cell density IgE activation: tryptase assay", "assay_type": "cell-based", "details": "Homo sapiens, Mast cell, anti-IgE", "experimental": "(§1) Pellet CHMC cells (980 rpm, 10 min) and resuspend in pre-warmed MT. Add 65 ul of cells to each 96-well plate. Depending on the degranulation activity for each particular CHMC donor, load 1000-1500 cells/well. Mix four times followed by a 1 hr incubation at 37° C. […] Stimulate cells by adding 25 ul of 6× anti-IgE solution to the appropriate plates. Add 25 ul MT to un-stimulated control wells. Mix twice following addition of the anti-IgE. Incubate at 37° C. for 30 minutes. […] Spin plates at 1000 rpm for 10 min to pellet cells. Transfer 25 ul of supernatant to a 96-well black bottom plate and add 100 ul of freshly diluted tryptase substrate solution to each well. Incubate plates at room temperature for 30 min.", "units": {"IC50": "nM"}, "values": [
      {"molecule": "O=C(O)Cc1cccc(Nc2ncc(F)c(Nc3cccc(CC(=O)O)c3)n2)c1", "note": "[R935117]", "IC50": "> 10000"}
    ]},
    {"system": "cultured human mast cells (CHMC)", "experiment": "CHMC low cell density IgE activation: tryptase assay", "assay_type": "cell-based", "details": "anti-IgE", "experimental": "as §1", "units": {"IC50": "nM"}, "values": [
      {"molecule": "Fc1cnc(Cl)nc1Nc1ccc2cn[nH]c2c1", "note": "[Compound R935260]", "IC50": "> 10000"},
      {"molecule": "CNC(=O)COc1cccc(Nc2ncc(F)c(Nc3ccc4cc(C(=O)OC)[nH]c4c3)n2)c1", "note": "[R926904, 5-Fluoro-N2-[3-[(N-methylamino)carbonylmethyleneoxy]phenyl]-N4-[2-(methoxycarbonyl)-(1H)-indol-6-yl]-2,4-pyrimidinediamine]", "IC50": 538},
      {"molecule": "N4-[3-(2-(N4-(3-aminomethylenephenyl)-5-fluoro-4-pyrimidineamine)-N-methylaminomethylene)-phenyl]-5-fluoro-N2-[3-(methylaminocarbonylmethyleneoxy)phenyl]-2,4-pyrimidineamine [R940311]", "IC50": 1950},
      {"molecule": "CC(=O)N(C(C)=O)c1cccc(N(C(C)=O)c2ncc(F)c(N(C(C)=O)c3cccc(N(C(C)=O)C(C)=O)c3)n2)c1", "note": "[R950247, N2,N4-Bis(3-N,N-diacetylaminophenyl)-5-fluoro-N2,N4-pyrimidinediacetylamine]", "IC50": "> 10000"},
      {"molecule": "CC1(C)Oc2cc(Nc3nc(Cl)ncc3F)cnc2NC1=O", "note": "[Compound R940344]", "IC50": "> 10000"},
      {"molecule": "Fc1cnc(Cl)nc1Nn1cccc1", "note": "[Compound R935275]", "IC50": "> 10000"},
      {"molecule": "CC(C)Oc1ccc(Nc2nc(Nc3ccc4c(cnn4CCCO)c3)ncc2F)cc1", "note": "[R935307, 5-Fluoro-N2-[1-(3-hydroxypropyl)indazoline-5-yl]-N4-(4-isopropoxyphenyl)-2,4-pyrimidinediamine]", "IC50": 139},
      {"molecule": "CCOC(=O)CCn1ncc2cc(Nc3nc(Nc4cccc(O)c4)ncc3F)ccc21", "note": "[R935303, N4-[1-(2-Ethoxycarbonylethyl)indazoline-5-yl]-5-fluoro-N2-(3-hydroxyphenyl)-2,4-pyrimidinediamine]", "IC50": 244},
      {"molecule": "CCOC(=O)C(C)(C)Oc1cccc(Nc2ncc(F)c(Nc3ccc4c(c3)OCCO4)n2)c1", "note": "[R926907, N2-[3-(Ethoxycarbonyl-1,1-dimethylmethyleneoxy)phenyl]-N4-(3,4-ethylenedioxyphenyl)-5-fluoro-2,4-pyrimidinediamine]", "IC50": 764},
      {"molecule": "COc1cc(C(=O)NS(=O)(=O)c2ccccc2C)ccc1Cn1ncc2ccc(Nc3ncc(F)c(Nc4ccc5c(c4)OCCO5)n3)cc21", "note": "[R935323, N4-(3,4-Ethylenedioxyphenyl)-5-fluoro-N4-[1-[2-methoxy-4-(o-toluylsulfonamidocarboxy)benzyl]indazoline-6-yl]-2,4-pyrimidinediamine]", "IC50": "> 10000"},
      {"molecule": "COc1ccc(Nc2nc(Nc3cc(C)c(O)c(Cl)c3)ncc2F)cc1CN1CCOCC1", "note": "[R940316, N2-(3-Chloro-4-hydroxy-5-methylphenyl)-5-fluoro-N4-[3-(N-morpholinomethylene)-4-methoxyphenyl]-2,4-pyrimidinediamine]", "IC50": 1860},
      {"molecule": "Oc1cccc(Nc2ncc(F)c(Nc3ccc4c(c3)OCCO4)n2)c1", "note": "[R926210, N4-(3,4-Ethylenedioxyphenyl)-5-fluoro-N2-(3-hydroxyphenyl)-2,4-pyrimidinediamine]", "IC50": 926},
      {"molecule": "Cc1cccc(Nc2nc(Cl)ncc2F)n1", "note": "[Compound R926888]", "IC50": "> 10000"},
      {"molecule": "Fc1ccc(Nc2nc(Cl)ncc2F)cc1F", "note": "[Compound R926882]", "IC50": "> 10000"},
      {"molecule": "COC(=O)COc1cccc(Nc2ncc(F)c(Nc3ccc4[nH]ncc4c3)n2)c1", "note": "[R935269, 5-Fluoro-N4-(indazoline-5-yl)-N2-[3-(methoxycarbonylmethyleneoxy)phenyl]-2,4-pyrimidinediamine]", "IC50": 1720},
      {"molecule": "CCOc1ccc(Nc2nc(Nc3cccc(OCC(=O)NC)c3)ncc2F)cc1N", "note": "[R950388, N4-(3-Amino-4-ethoxyphenyl)-5-fluoro-N2-[3-(N-methylamino)carbonylmethyleneoxyphenyl]-2,4-pyrimidinediamine]", "IC50": 2520},
      {"molecule": "CCOC(=O)C(C)(C)Oc1cccc(Nc2ncc(F)c(Nc3cccc(O)c3)n2)c1", "note": "[R926906, N2-[3-(Ethoxycarbonyl-1,1-dimethylmethyleneoxy)phenyl]-5-fluoro-N4-(3-hydroxyphenyl)-2,4-pyrimidinediamine]", "IC50": 794},
      {"molecule": "CC1(C)CN(c2ccccn2)c2cc(Nc3nc(Nc4cccc(O)c4)ncc3F)ccc2O1", "note": "[R940348, N4-[3-Dihydro-2,2-dimethyl-4-(2-pyridyl)-benzo[1,4]oxazin-6-yl]-5-fluoro-N2-(3-hydroxyphenyl)-2,4-pyrimidinediamine]", "IC50": 2190},
      {"molecule": "COC(=O)c1ccc(Cn2cc3ccc(Nc4ncc(F)c(Nc5cccc(O)c5)n4)cc3n2)c(OC)c1", "note": "[R935337, 5-Fluoro-N4-(3-hydroxyphenyl)-N2-[2-(2-methoxy-4-carbomethoxybenzyl)indazoline-6-yl]-2,4-pyrimidinediamine]", "IC50": "> 10000"},
      {"molecule": "CNC(=O)COc1cccc(Nc2ncc(F)c(Nc3ccc4c(c3)C(=O)CCO4)n2)c1", "note": "[R950345, N4-(2,3-Dihydro-4-benzypyranon-6-yl)-5-fluoro-N2-[3-(N-methylamino)carbonylmethyleneoxyphenyl]-2,4-pyrimidinediamine]", "IC50": 1960},
      {"molecule": "Fc1cnc(Cl)nc1Nc1ccc(Cl)nc1", "note": "[Compound R920400]", "IC50": "> 10000"},
      {"molecule": "Fc1cnc(Cl)nc1Nc1ccc2ncccc2c1", "note": "[Compound R920409]", "IC50": "> 10000"},
      {"molecule": "CNC(=O)COc1cccc(Nc2ncc(F)c(Nc3ccc(OC)c(CN(C(=O)OC(C)(C)C)C(C)C)c3)n2)c1", "note": "[R940319, N4-(3-(N-tert-Butoxycarbonyl-N-iso-propylaminomethylene)-4-methoxyphenyl)-5-fluoro-N2-[3-(methylaminocarbonylmethyleneoxy)phenyl]-2,4-pyrimidinediamine]", "IC50": "> 10000"},
      {"molecule": "Oc1cccc(Nc2ncc(F)c(Nc3ccc4[nH]ncc4c3)n2)c1", "note": "[R935268, 5-Fluoro-N2-(3-hydroxyphenyl)-N4-(indazoline-5-yl)-2,4-pyrimidinediamine]", "IC50": 1060},
      {"molecule": "COC(=O)c1cc2cc(Nc3ncc(F)c(Nc4ccc5c(c4)NC(=O)C(C)(C)O5)n3)ccc2o1", "note": "[R940354, N4-[(2,2-Dimethyl-4H-benzo[1,4]oxazin-3-one)-6-yl]-5-fluoro-N2-(2-methoxycarbonylbenzofur-5-yl)-2,4-pyrimidinediamine]", "IC50": 115},
      {"molecule": "COc1ccc(Nc2nc(Cl)ncc2F)cn1", "note": "[Compound R926878]", "IC50": "> 10000"},
      {"molecule": "CNC(=O)COc1cccc(Nc2ncc(F)c(Nc3ccc4c(c3)C(=NO)CCO4)n2)c1", "note": "[R950348, N4-(2,3-Dihydro-4-oxime-benzypyran-6-yl)-5-fluoro-N2-[3-(N-methylamino)carbonylmethyleneoxyphenyl]-2,4-pyrimidinediamine]", "IC50": 66},
      {"molecule": "CNC(=O)COc1cccc(Nc2ncc(F)c(Nc3ccc(OC)c(CO)c3)n2)c1", "note": "[R950386, N4-(3-Hydroxymethylen-4-methoxyphenyl)-5-fluoro-N2-[3-(N-methylamino)carbonylmethyleneoxyphenyl]-2,4-pyrimidinediamine]", "IC50": 973},
      {"molecule": "CC(=O)Nc1cccc(N(C(C)=O)c2nc(N(C(C)=O)c3cccc(N(C(C)=O)C(C)=O)c3)ncc2F)c1", "note": "[R950246, N4-(3-N-Acetylaminophenyl)-N2-(3-N,N-diacetylaminopheny)-5-fluoro-N2,N4-pyrimidinediacetylamine]", "IC50": "> 10000"},
      {"molecule": "Fc1cnc(Cl)nc1Nc1ccc2c(c1)OC(F)(F)O2", "note": "[Compound R920403]", "IC50": "> 10000"},
      {"molecule": "CCOC(=O)CCn1ncc2cc(Nc3ncc(F)c(Nc4ccc5c(c4)OCCO5)n3)ccc21", "note": "[R935301, N2-[1-(2-Ethoxycarbonylethyl)indazoline-5-yl]-N4-(3,4-ethylenedioxyphenyl)-5-fluoro-2,4-pyrimidinediamine]", "IC50": 4050}
    ]}
  ]
}
